Reference: patent publication US8546427B2, “Tetrahydroquinoline derivatives” (Hoffmann-La Roche Inc., priority 2010, dated 2013)

System: AMP-activated protein kinase (AMPK)
Test: ADP Quest assay for AMPK activators
Assay type: biochemical
Design: key: fold AMPK activation at 30 μM activator vs none
Conditions: fold of AMPK activation to phosphorylate SAMS peptide without and with an activator at the concentration of 30 μM
Protocol: This method evaluates AMP-activated protein kinase (AMPK) activity through detecting the accumulation of ADP product using an ADP Quest kit and determining the E30 values of the small molecular AMPK activators. ADP Quest kit (DiscoveRx, Fremont, Calif.) is stored at −20° C. before use. Before an experiment, thaw the kit (include assay buffer, ADP standard solution, reagent A and reagent B) and equilibrate to room temperature. Dispense the ADP Quest reagents into single-use aliquots and store at −20° C. The compound concentrations typically range from 0 μM to 100 μM by 2-fold dilution. AMP concentrations range from 0.98 μM to 1 mM as the reference control. In an assay, thaw and equilibrate the assay buffer, reagent A and reagent B to room temperature for 30 minutes prior to use. Mix ATP, SAMS peptide substrate and compound, and place them into the 384-well assay plate. Add reagent A and B based on the assay kit protocol. Incubate the assay plate at room temperature for 30 minutes after addition the mixture followed by the addition of AMPK protein (Invitrogen, CA) to initiate the AMPK phosphorylation reaction. At the same time, reactions with AMPK activator AMP in the absence of enzyme is included as blank control. The reaction fluorescence signal is monitored and recorded on Envision in kinetic mode with the excitation wavelength of 530 nm and emission wavelength of 590 nm. The E30 value, defined as the fold of AMPK activation to phosphorylate SAMS peptide without and with an activator at the concentration of 30 μM, is calculated and analyzed using Prism 5.0.

SMILES | E30
CC1(C)CC(c2ccccc2NS(=O)(=O)c2cccnc2)Nc2ccc(Cl)cc21 (stereo not drawn) [Example-36, Pyridine-3-sulfonic acid [2-(6-chloro-4,4-dimethyl-1,2,3,4-tetrahydro-quinolin-2-yl)-phenyl]-amide] | 1.34
CC1(C)CC(c2ccccc2NC(=O)c2cccc(F)c2)Nc2ccc(C(=O)O)cc21 (stereo not drawn) [Example-37, 2-[2-(3-Fluoro-benzoylamino)-phenyl]-4,4-dimethyl-1,2,3,4-tetrahydro-quinoline-6-carboxylic acid] | 1.20
CC1(C)CC(c2ccccc2NS(=O)(=O)c2ccccc2F)Nc2ccc(C(=O)O)cc21 (stereo not drawn) [Example-39, 2-[2-(2-Fluoro-benzenesulfonylamino)-phenyl]-4,4-dimethyl-1,2,3,4-tetrahydro-quinoline-6-carboxylic acid] | 2.69
CC1(C)CC(c2ccccc2NS(=O)(=O)c2ccc(F)cc2)Nc2ccc(C(=O)O)cc21 (stereo not drawn) [Example-40, 2-[2-(4-Fluoro-benzenesulfonylamino)-phenyl]-4,4-dimethyl-1,2,3,4-tetrahydro-quinoline-6-carboxylic acid] | 3.01
CC1(C)CC(c2ccccc2NS(=O)(=O)c2ccccc2)Nc2ccc(C(=O)O)cc21 (stereo not drawn) [Example-41, 2-(2-Benzenesulfonylamino-phenyl)-4,4-dimethyl-1,2,3,4-tetrahydro-quinoline-6-carboxylic acid] | 2.63
CC1(C)CC(c2ccccc2NS(=O)(=O)c2cccc(F)c2)Nc2ccc(C(=O)O)cc21 (stereo not drawn) [Example-42, 2-[2-(3-Fluoro-benzenesulfonylamino)-phenyl]-4,4-dimethyl-1,2,3,4-tetrahydro-quinoline-6-carboxylic acid] | 2.41
CC1(C)CC(c2ccccc2NS(=O)(=O)c2cccc(F)c2)Nc2ccc(C(F)(F)F)cc21 (stereo not drawn) [Example-43, N-[2-(4,4-Dimethyl-6-trifluoromethyl-1,2,3,4-tetrahydro-quinolin-2-yl)-phenyl]-3-fluoro-benzenesulfonamide] | 1.14
CC1(C)CC(c2ccccc2NS(=O)(=O)c2ccccc2F)Nc2ccc(C(F)(F)F)cc21 (stereo not drawn) [Example-44, N-[2-(4,4-Dimethyl-6-trifluoromethyl-1,2,3,4-tetrahydro-quinolin-2-yl)-phenyl]-2-fluoro-benzenesulfonamide] | 1.15
CC1(C)CC(c2ccccc2NS(=O)(=O)c2ccc(F)cc2)Nc2ccc(C(F)(F)F)cc21 (stereo not drawn) [Example-45, N-[2-(4,4-Dimethyl-6-trifluoromethyl-1,2,3,4-tetrahydro-quinolin-2-yl)-phenyl]-4-fluoro-benzenesulfonamide] | 1.15
CCS(=O)(=O)Nc1ccccc1C1CC(C)(C)c2cc(C(F)(F)F)ccc2N1 (stereo not drawn) [Example-46, Ethanesulfonic acid [2-(4,4-dimethyl-6-trifluoromethyl-1,2,3,4-tetrahydro-quinolin-2-yl)-phenyl]-amide] | 1.20
CC(C)S(=O)(=O)Nc1ccccc1C1CC(C)(C)c2cc(C#N)ccc2N1 (stereo not drawn) [Example-50, Propane-2-sulfonic acid [2-(6-cyano-4,4-dimethyl-1,2,3,4-tetrahydro-quinolin-2-yl)-phenyl]-amide] | 1.19
CC1(C)CC(c2cccc(NS(=O)(=O)c3ccc(F)cc3)c2)Nc2ccc(C(F)(F)F)cc21 (stereo not drawn) [Example-58, N-[3-(4,4-Dimethyl-6-trifluoromethyl-1,2,3,4-tetrahydro-quinolin-2-yl)-phenyl]-4-fluoro-benzenesulfonamide] | 1.34
